Assays:
PC3 (Prostate) = assay: In vitro cytotoxicity, MTT proliferation assay, PC3; type: cell-based, human; details: Homo sapiens
Protocol: (§1) The human pancreatic cancer cell line, HPAC (CRL-2119) was routinely cultured in 1:1 mixture DMEM (Sigma) plus Ham's F12 (Sigma) medium containing HEPES (15 mM), insulin (0.002 mg/ml), transferrin (0.005 mg/ml), hydrocortisone, (40 ng/ml), epidermal growth factor (10 ng/ml). The ovarian cancer cell line CP70 was obtained as a gift from Dr. Gil Mor (Yale University) and cultured in a 1:1 mixture DMEM plus Ham's F12 medium, and SKOV-3 was purchased from ATCC and cultured in McCoy's 5a medium. The breast cancer cell line MDA-MB-468 cultured in Leibovitz's L-15 medium.
(§2) All cultures were supplemented with 10% FCS(CSL, Australia), penicillin (100 U/ml), streptomycin ([…]), L-glutamine (2 mM) and sodium bicarbonate (1.2 g/L), and cultured at 37° C. in a humidified atmosphere of 5% CO2. All remaining cell lines were purchased from ATCC (Maryland, USA) except where noted.
(§3) IC50 values were determined for each cell line. Cells were seeded in 96-well plates at an appropriate cell density as determined from growth kinetics analysis. NFFs were cultured for 5 days and RK-13s for 24 hrs in the absence and presence of the test compounds. Cell proliferation was assessed after the addition of 20 μl of 3-4,5 dimethylthiazol-2,5-diphenyl tetrazolium bromide (MTT, 2.5 mg/ml in PBS, Sigma) for 3-4 hrs at 37° C. according to manufacturer's instructions. IC50 values were calculated from semi-log plots of % of control proliferation on the y-axis against log dose on the x-axis.

RPMI-8226 (Leukemic) = assay: In vitro cytotoxicity, MTT proliferation assay, RPMI-8226; type: cell-based; details: Homo sapiens; Leukemic RPMI-8226
Protocol: as §1, §2
as §3, with “NFFs were cultured for 5 days and RK-13s for 24 hrs in the absence and presence of the test compounds.” left out

NCI-H23 (Lung) = assay: In vitro cytotoxicity, MTT proliferation assay, NCI-H23; type: cell-based; details: Homo sapiens
Protocol: as §1, §2
as §3, with “NFFs were cultured for 5 days and RK-13s for 24 hrs in the absence and presence of the test compounds.” left out

TXB2 = TXB2 in murine macrophages (RAW 264.7) stimulated with LPS; type: cell-based, mouse; details: RAW 264.7, LPS 50 ng/ml, 16 hrs, dose responsive
Protocol: The mouse macrophage cell line RAW 264.7 was cultured in DMEM supplemented with FCS, 2 mM glutamine and 50 U/ml penicillin/streptomycin. Subconfluent cells were detached from the flask by gentle scraping and 24-well plates seeded at 5×10^5 cells per well and allowed to adhere for 1 hr. Cells were then treated either test compounds (in 0.025% DMSO) or vehicle alone, and incubated for 1 hr. LPS 50 ng/ml (LPS —Sigma-Aldrich) was then added. After incubation for 16 hrs, culture media was collected and stored at −80° C. for ecosanoid and cytokine measurements using enzyme immunometric assays (PGE2 and TXB2—Cayman Chemical and TNFα—Becton Dickinson).

thoracic aorta = assay: Aortic ring contractility induced by noradrenaline; design: species or system Male Sprague-Dawley rats; details: in presence of Cpd. 2 1 μg/ml; 1.94±0.35 vs. 2.09±0.23, p>0.05, no effect; n=6 rings
Protocol: Male Sprague-Dawley rats (250±50 g) were euthanased with 80% CO2 and 20% O2. The thoracic aorta was excised and quickly mounted in organ-baths as described (Chin-Dusting et al, 2001). Full concentration-contractile curves were obtained to noradrenaline ([…]) in the absence and presence of Cpd. 2 (1 μg/ml). Experiments were repeated in n=6 different rings from 6 different animals.

[1] = test system: HCT-15 (Colorectal) cells; assay: Chemosensitisation, combination with antineoplastic agent, HCT-15; type: cell-based, human
Protocol: The utility of the dimeric compounds of the invention to act as a chemosensitiser when used in combination with an array of standard chemotherapeutic agents was assessed. Dimeric Cpd. 2 was applied to various colorectal and pancreatic cancer cell lines to investigate its synergy with standard chemotherapeutic agents including cisplatin, gemcitabine, paclitaxel, doxorubicin, camptothecin and topotecan.
The experiment as outlined in SOP-BD011 (Versions A and B) was used to screen three antineoplastic agents against a given cell line in any ‘one’ experiment (see for example Kanzawa et al., (1997)). The inherent design of the experiment allowed for three sequences of Cpd. 2 and an antineoplastic agent. • 1) Direct Sequence—Cells are treated with both Cpd. 2 and a single antineoplastic agent (combined) for 5 days. • 2) Cpd. 2 First (Forward) Sequence—Cells are treated for 24 hours with Cpd. 2 before replacing with a 24 hour antineoplastic agent treatment; drugs are then washed out and processed on Day 5. • 3) Reverse Sequence—The reverse order to experiment No. 2 above. i.e. a cytotoxin first sequence Results and Conclusions
All data was evaluated using the formulae of theoretic additivity incorporated into a three dimensional model, as described by Kanzawa et al. (1997). This allows for simple data interpretation as values in excess of 10% are defined as ‘synergistic’ (depicted in grey) whilst those below −10% are defined as ‘antagonistic’ (depicted in black).

splenocytes = assay: Murine splenocyte proliferation with mitogens (MTT), 3 day incubation with compound; type: cell-based, Male Skh-1 (hairless) mice
Protocol: Male Skh-1 (hairless) mice, six weeks old were killed by cervical dislocation. Single cell suspensions were made from their spleens and erythrocytes were lysed in buffer (0.14M NH4Cl, 17 mM Tris, pH 7.2). The remaining splenocytes were cultured in RPMI-1640 (Gibco) supplemented with 10% (v:v) FBS, 200 mM L-glutamine, penicillin/streptomycin and […] 2-mercaptoethanol. […] Samples were analysed after a 3 day incubation at 37° C. in 5% CO2 in air. To assess cell numbers, methylthiazoletetrazolium (MTT) was added to each well, incubated for a further 4 hrs and then colour developed with 0.04N HCl in isopropanol (Mosmann 1983). Plates were read at 570 nm and 630 nm. The compounds were examined several times using different mice. For each assay, the effect of test compound was compared with that of vehicle control, and the results compared using a student's t test (Prism). Statistically significant difference was determined to have occurred when p<0.05.

## COc1ccc(C23COc4c(ccc(O)c4C)C2C2c4ccc(O)c(C)c4OCC2c2cc(OC)c(OC)cc23)cc1OC (centres unmarked) [Cpd. 2, 4,9-Dihydroxy-14,15-dimethoxy-12a-(3′,4′-dimethoxyphenyl)-3,10-dimethyl-2,11-dioxa-(1H,12H)-6b,6c,12a,16b-tetrahydronaphtho[1,2-g]chrysene]
PC3 (Prostate)
  IC50: 7.36 ± 1.35 µM
RPMI-8226 (Leukemic)
  IC50: 15.2 µM
NCI-H23 (Lung)
  IC50: 16.4 µM
TXB2
  effect on TXB2: inhibited
Thoracic aorta
  maximal contractile response to noradrenaline: 2.09±0.23
[1]; combination (A)
  synergy with Doxorubicin: strong synergistic cytotoxicity
[1]; combination treated group (A)
  synergy with Paclitaxel: no synergy
[1]; forward (B) and reverse (C) 24 hour sequences, Cpd. 2 1 μM and 2 μM
  synergy with Paclitaxel: strong synergy
[1]; forward (B) or reverse (C) sequences
  synergy with Doxorubicin: No synergy
splenocytes; 10 μM, four different assays
  effect on splenocyte proliferation: no consistent trend
splenocytes; higher concentrations (than 10 μM), regardless of mitogenic stimulation
  proliferation compared with vehicle control: reduced proliferation
